Results: US6737383B1, “Herbicidal oxadiazolidines” (priority 1999, dated 2004)

Assays:
sugar beet = assay: Test B pre/postemergence sugar beet; type: in vivo, Beta vulgaris; settings: for Plant response rating, Sugarbeets: Postemergence
Method in brief: (§1)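 Response is a visual 0-to-10 score relative to untreated plants, where 0 means no effect and 10 means complete control, taken twelve to sixteen days after application. Treatments went onto soil at planting and onto foliage of 1- to 4-leaf plants, using a surfactant-containing non-phytotoxic solvent.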

surinam grass = assay: Test B pre/postemergence surinam grass; type: in vivo, Brachiaria decumbens
Method in brief: as §1

wheat = assay: Test B pre/postemergence wheat; type: in vivo, Triticum aestivum; settings: for Plant response rating, Wheat: Postemergence
Method in brief: as §1

crabgrass = assay: Test B pre/postemergence crabgrass; type: in vivo, Digitaria sanguinalis
Method in brief: as §1

bedstraw = assay: Test B pre/postemergence bedstraw; type: in vivo, Galium aparine
Method in brief: as §1

soybean = assay: Test B pre/postemergence soybean; type: in vivo, Glycine max; settings: for Plant response rating, Soybean: Postemergence
Method in brief: as §1

rice = assay: Test B flood test rice; type: in vivo, Oryza sativa
Method in brief: (§2)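 Plants were grown to the 2-leaf stage before treatment with test chemical, then held in a greenhouse for twelve to sixteen days. Injury was visually rated against untreated controls on a 0–10 scale, where 0 is no effect and 10 is complete control.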

rape = assay: Test B pre/postemergence rape; type: in vivo, Brassica napus
Method in brief: as §1

morningglory = assay: Test B pre/postemergence morningglory; type: in vivo, Ipomoea hederacea
Method in brief: as §1

velvetleaf = assay: Test B pre/postemergence velvetleaf; type: in vivo, Abutilon theophrasti; settings: for Plant response rating, Velvetleaf: Postemergence
Method in brief: as §1

blackgrass = assay: Test B pre/postemergence blackgrass; type: in vivo, Alopecurus myosuroides
Method in brief: as §1

wild oat = assay: Test B pre/postemergence wild oat; type: in vivo, Avena fatua; settings: for Plant response rating, Wild oats: Postemergence
Method in brief: as §1

duck salad = assay: Test B flood test duck salad; type: in vivo, Heteranthera limosa
Method in brief: as §2

pigweed = assay: Test B pre/postemergence pigweed; type: in vivo, Amaranthus retroflexus; settings: for Plant response rating, Redroot pigweed: Postemergence
Method in brief: as §1

smallflower flatsedge = assay: Test B flood test smallflower flatsedge; type: in vivo, Cyperus difformis
Method in brief: as §2

corn = assay: Test B pre/postemergence corn; type: in vivo, Zea mays
Method in brief: as §1

cocklebur = assay: Test B pre/postemergence cocklebur; type: in vivo, Xanthium strumarium
Method in brief: as §1

bamyardgrass = assay: Test B flood test barnyardgrass; type: in vivo, Echinochloa crus-galli
Method in brief: as §2

giant foxtail = assay: Test B pre/postemergence giant foxtail; type: in vivo, Setaria faberii
Method in brief: as §1

purple nutsedge = assay: Test B pre/postemergence purple nutsedge; type: in vivo, Cyperus rotundus
Method in brief: as §1

[1] = Rate 500 g/ha, scale of 0 to 10 where 0 is no effect and 10 is complete control
[2] = Preemergence, Rate 62 g/ha, scale 0 to 10 (0 no effect, 10 complete control)
[3] = Preemergence, Rate 125 g/ha, scale 0 to 10, 0 is no effect, 10 is complete control
[4] = Preemergence, Rate 500 g/ha, scale of 0 to 10 where 0 is no effect and 10 is complete control
[5] = Rate 250 g/ha, scale of 0 to 10 where 0 is no effect and 10 is complete control
[6] = Postemergence, Rate 62 g/ha, scale of 0 to 10, 0 is no effect, 10 is complete control
[7] = Postemergence, Rate 125 g/ha, scale 0 to 10, 0 is no effect, 10 is complete control
[8] = Postemergence, Rate 500 g/ha, scale of 0 to 10 where 0 is no effect and 10 is complete control
[9] = Rate 250 g/ha, Postemergence, scale of 0 to 10 where 0 is no effect and 10 is complete control
[10] = Rate 62 g/ha, flood test species, Pre-emergence, visual evaluation after twelve to sixteen days
[11] = Rate 125 g/ha, under heading Pre-emergence, flood test species, visual evaluation after twelve to sixteen days
[12] = Rate 250 g/ha, Pre-emergence (flood test species), scale 0 to 10, 0 is no effect, 10 is complete control
[13] = Rate 500 g/ha, Pre-emergence section of Table B, 0 to 10 scale (0 no effect, 10 complete control)

## CC(C)N(C(=O)n1oc(=O)n(C(C)C(=O)c2ccccc2)c1=O)c1ccccc1 (centres unmarked) [Compound 570]
Sugar beet; [1]
  Plant response rating, Sugarbeets: 0
Sugar beet; [2]
  Sugarbeets plant response rating: 0
Sugar beet; [3]
  Sugarbeets plant response rating: 0
Sugar beet; Preemergence, Rate 250 g/ha
  Sugarbeets plant response rating (0 to 10 scale): 0
Sugar beet; [4]
  Sugarbeets plant response rating: 2
Sugar beet; [5]
  Plant response rating, Sugarbeets: 0
Surinam grass; [6]
  B. signalgrass plant response rating: 0
Surinam grass; [7]
  B. signalgrass plant response rating: 0
Surinam grass; [8]
  Plant response rating, B. signalgrass: 0
Surinam grass; [2]
  B. signalgrass plant response rating: 0
Surinam grass; [3]
  B. signalgrass plant response rating: 0
Surinam grass; Preemergence, Rate 250 g/ha
  B. signalgrass plant response rating (0 to 10 scale, 0 is no effect, 10 is complete control): 0
Surinam grass; [4]
  B. signalgrass plant response rating: 0
Surinam grass; [9]
  Plant response rating, B. signalgrass: 0
wheat; [1]
  Plant response rating, Wheat: 0
wheat; [2]
  Wheat plant response rating: 0
wheat; [3]
  Wheat plant response rating: 0
wheat; Preemergence, Rate 250 g/ha
  Wheat plant response rating (0 to 10 scale): 0
wheat; [4]
  Wheat plant response rating: 0
wheat; [5]
  Plant response rating, Wheat: 0
crabgrass; [6]
  Crabgrass plant response rating: 0
crabgrass; [7]
  Crabgrass plant response rating: 0
crabgrass; [8]
  Plant response rating, Crabgrass: 0
crabgrass; [2]
  Crabgrass plant response rating: 9
crabgrass; [3]
  Crabgrass plant response rating: 9
crabgrass; Preemergence, Rate 250 g/ha
  Crabgrass plant response rating (0 to 10 scale): 9
crabgrass; [4]
  Crabgrass plant response rating: 10
crabgrass; [9]
  Plant response rating, Crabgrass: 0
bedstraw; [6]
  Bedstraw plant response rating: 0
bedstraw; [2]
  Bedstraw plant response rating: 0
bedstraw; [3]
  Bedstraw plant response rating: 0
bedstraw; Preemergence, Rate 250 g/ha
  Bedstraw plant response rating (0 to 10 scale): 0
bedstraw; [4]
  Bedstraw plant response rating: 0
soybean; [1]
  Plant response rating, Soybean: 3
soybean; [2]
  Soybean plant response rating: 0
soybean; [3]
  Soybean plant response rating: 0
soybean; Preemergence, Rate 250 g/ha
  Soybean plant response rating (0 to 10 scale): 0
soybean; [4]
  Soybean plant response rating: 0
soybean; [5]
  Plant response rating, Soybean: 3
rice; [10]
  Plant response rating, Rice (0 to 10 scale, 0 is no effect, 10 is complete control): 0
rice; [11]
  Rice plant response rating (0 to 10 scale, 0 is no effect, 10 is complete control): 0
rice; [12]
  Rice plant response rating: 0
rice; [13]
  Rice plant response rating: 0
rape; [6]
  Rape plant response rating: 0
rape; [7]
  Rape plant response rating: 0
rape; [8]
  Plant response rating, Rape: 0
rape; [2]
  Rape plant response rating: 0
rape; [3]
  Rape plant response rating: 0
rape; Preemergence, Rate 250 g/ha
  Rape plant response rating (0 to 10 scale): 0
rape; [4]
  Rape plant response rating: 0
rape; [9]
  Plant response rating, Rape: 0
morningglory; [6]
  Morningglory plant response rating: 4
morningglory; [7]
  Morningglory plant response rating: 10
morningglory; [8]
  Plant response rating, Morningglory: 10
morningglory; [2]
  Morningglory plant response rating: 0
morningglory; [3]
  Morningglory plant response rating: 0
morningglory; Preemergence, Rate 250 g/ha
  Morningglory plant response rating (0 to 10 scale): 0
morningglory; [4]
  Morningglory plant response rating: 0
morningglory; [9]
  Plant response rating, Morningglory: 10
velvetleaf; [1]
  Plant response rating, Velvetleaf: 0
velvetleaf; [2]
  Velvetleaf plant response rating: 0
velvetleaf; [3]
  Velvetleaf plant response rating: 0
velvetleaf; Preemergence, Rate 250 g/ha
  Velvetleaf plant response rating (0 to 10 scale): 0
velvetleaf; [4]
  Velvetleaf plant response rating: 0
velvetleaf; [5]
  Plant response rating, Velvetleaf: 0
blackgrass; [6]
  Blackgrass plant response rating: 0
blackgrass; [7]
  Blackgrass plant response rating: 0
blackgrass; [8]
  Plant response rating, Blackgrass: 0
blackgrass; [2]
  Blackgrass plant response rating: 0
blackgrass; [3]
  Blackgrass plant response rating: 0
blackgrass; Preemergence, Rate 250 g/ha
  Blackgrass plant response rating (0 to 10 scale): 0
blackgrass; [4]
  Blackgrass plant response rating: 0
blackgrass; [9]
  Plant response rating, Blackgrass: 0
Wild oat; [1]
  Plant response rating, Wild oats: 0
Wild oat; [2]
  Wild oats plant response rating: 0
Wild oat; [3]
  Wild oats plant response rating: 0
Wild oat; Preemergence, Rate 250 g/ha
  Wild oats plant response rating (0 to 10 scale): 0
Wild oat; [4]
  Wild oats plant response rating: 0
Wild oat; [5]
  Plant response rating, Wild oats: 0
Duck salad; [10]
  Plant response rating, Ducksalad (0 to 10 scale, 0 is no effect, 10 is complete control): 0
Duck salad; [11]
  Ducksalad plant response rating (0 to 10 scale, 0 is no effect, 10 is complete control): 0
Duck salad; [12]
  Ducksalad plant response rating: 0
Duck salad; [13]
  Ducksalad plant response rating: 0
pigweed; [1]
  Plant response rating, Redroot pigweed: 0
pigweed; [2]
  Redroot pigweed plant response rating: 0
pigweed; [3]
  Redroot pigweed plant response rating: 0
pigweed; Preemergence, Rate 250 g/ha
  Redroot pigweed plant response rating (0 to 10 scale): 0
pigweed; [4]
  Redroot pigweed plant response rating: 8
pigweed; [5]
  Plant response rating, Redroot pigweed: 0
Smallflower flatsedge; [10]
  Plant response rating, S. Flatsedge (0 to 10 scale, 0 is no effect, 10 is complete control): 0
Smallflower flatsedge; [11]
  S. Flatsedge plant response rating (0 to 10 scale, 0 is no effect, 10 is complete control): 0
Smallflower flatsedge; [12]
  S. Flatsedge plant response rating: 0
Smallflower flatsedge; [13]
  S. Flatsedge plant response rating: 0
corn; [6]
  Corn plant response rating: 0
corn; [7]
  Corn plant response rating: 0
corn; [8]
  Plant response rating, Corn: 0
corn; [2]
  Corn plant response rating: 0
corn; [3]
  Corn plant response rating: 0
corn; Preemergence, Rate 250 g/ha
  Corn plant response rating (0 to 10 scale): 0
corn; [4]
  Corn plant response rating: 0
corn; [9]
  Plant response rating, Corn: 0
cocklebur; [6]
  Cocklebur plant response rating: 0
cocklebur; [7]
  Cocklebur plant response rating: 0
cocklebur; [8]
  Plant response rating, Cocklebur: 0
cocklebur; [2]
  Cocklebur plant response rating: 0
cocklebur; [3]
  Cocklebur plant response rating: 0
cocklebur; Preemergence, Rate 250 g/ha
  Cocklebur plant response rating (0 to 10 scale): 0
cocklebur; [4]
  Cocklebur plant response rating: 0
cocklebur; [9]
  Plant response rating, Cocklebur: 0
bamyardgrass; [10]
  Plant response rating, Barnyardgrass (0 to 10 scale, 0 is no effect, 10 is complete control): 0
bamyardgrass; [11]
  Barnyardgrass plant response rating (0 to 10 scale, 0 is no effect, 10 is complete control): 0
bamyardgrass; [12]
  Barnyardgrass plant response rating: 0
bamyardgrass; [13]
  Barnyardgrass plant response rating: 0
Giant foxtail; [6]
  Giant foxtail plant response rating: 0
Giant foxtail; [7]
  Giant foxtail plant response rating: 0
Giant foxtail; [8]
  Plant response rating, Giant foxtail: 0
Giant foxtail; [2]
  Giant foxtail plant response rating: 0
Giant foxtail; [3]
  Giant foxtail plant response rating: 0
Giant foxtail; Preemergence, Rate 250 g/ha
  Giant foxtail plant response rating (0 to 10 scale): 9
Giant foxtail; [4]
  Giant foxtail plant response rating: 9
Giant foxtail; [9]
  Plant response rating, Giant foxtail: 0
Purple nutsedge; [6]
  Nutsedge plant response rating: 0
Purple nutsedge; [7]
  Nutsedge plant response rating: 0
Purple nutsedge; [8]
  Plant response rating, Nutsedge: 0
Purple nutsedge; [2]
  Nutsedge plant response rating: 0
Purple nutsedge; [3]
  Nutsedge plant response rating: 0
Purple nutsedge; [4]
  Nutsedge plant response rating: 0
Purple nutsedge; [9]
  Plant response rating, Nutsedge: 0
